What was measured:
Assay type in all cases: cell-based, rat
OPCs [1] = assay: Binary global metabolomics analysis of taurine co-treatment; details: for Cysteine pool, increase with taurine / Serine pool, increase with taurine / GSH level, increase with taurine / Cysteine level, increase with taurine / Serine level, increase with taurine: 20 mM taurine; for Cysteine pool, increase with taurine / Serine pool, increase with taurine: 3 days
Procedure: Rat primary optic nerve OPCs were isolated by panning (>99% A2B5^+) and cultured in poly-D-lysine (10 μg/ml)-coated TC dishes in OPC culture media (Neurobasal Media, Invitrogen) supplemented with B27-without vitamin A (Invitrogen), 1× non-essential amino acids, 1× Glutamax, 1× anti-anti, β-mercaptoethanol and PDGF-AA (50 ng/ml; Peprotech) at 37° C. with 5% CO2. The culture medium was replaced every 48 h and cells were collected before the confluency reached 60% to maintain a naive state. For differentiation, OPCs were plated at 1 million cells in one 10 cm petri-dish filled with differentiation media, which is identical to the culture media, but with PDGF-AA at 2 ng/ml. T3 and DMSO were used as the positive control and negative control, respectively. Five replicates of cells were collected at different times (0, 3, and 6 days) for metabolomics studies.
Global metabolomics and lipidomics. Cells incubated in differentiation medium were collected at Day 0, 3 and 6 for both the T3 and DMSO treated OPC. The cells were first rinsed with PBS twice to completely remove the culture medium and then scraped into a 1.5 mL Eppendorf vial using 500-1000 μL PBS. Subsequently, cells were collected by aspirating the supernatant after centrifugation at 1,000 rpm at 4° C. for 3 min. The global metabolites were extracted from cell pellets by a methanol:acetonitrile:water (2:2:1, v/v) solvent mixture. A volume of 600 μL of cold solvent was added to each pellet, vortexed for 30 s, and soaked in liquid nitrogen for 1 min. Samples were then allowed to thaw at room temperature and then sonicated for 10 min. This freeze-thaw process was repeated for additional twice. To further precipitate proteins, samples were incubated for 1 h at […], followed by centrifugation at 16,000 g at 4° C. for 15 min. The protein concentration of the cells was measured in the final pellet after centrifugation using BCA assay. The resulting supernatant was removed and evaporated to dryness in a vacuum concentrator (LABCONCO CentriVap Benchtop). The dry extracts were then reconstituted in the appropriate volume of acetonitrile/water (1:1, v/v), normalized by the protein concentration with the lowest concentration approximately 50 μL, sonicated for 10 min, and centrifuged for 15 min at 16,000 g and 4° C. to remove insoluble debris. The supernatants were transferred to HPLC vials with inserts and stored at −80° C. prior to LC/MS analysis. The Folch method was used to extract the lipids from OPCs treated with T3 and DMSO for 6 days. A mixture of 600 μL, chloroform/MeOH (2:1, v/v) was used in the freeze-thaw extraction method as described above, and a subsequent addition of 600 μL, of water was performed. Using this liquid-liquid extraction method, the organic phase was collected, dried and finally reconstituted in IPA/MeOH/H2O (5:1:4, v/v/v) before analysis.
Cell extracts were analyzed on a 6550 iFunnel QTOF mass spectrometer (Agilent Technologies) coupled with a 1290 UPLC system (Agilent Technologies). For global metabolomics, HPLC was carried out on a Luna Aminopropyl, 3 μm, 150 mm×1.0 mm I.D. HILIC column (Phenomenex). The mobile phase was composed of A=20 mM ammonium acetate and 40 mM ammonium hydroxide in 95% water (v/v) and B=95% acetonitrile. The remaining 5% components were either acetonitrile or water, respectively. A linear gradient from 100% B (0-5 min) to 100% A (50-55 min) was applied. A 10 min re-equilibration time was applied to the HILIC column for re-equilibration and maintenance of reproducibility. The flow rate was 50 μL/min, and the sample injection volume was 5 μL. ESI source conditions were set as follows: dry gas temperature, 200° C.; flow, 11 L/min, fragmentor, 380 V; sheath gas temperature, 300° C.; flow, 9 L/min; nozzle voltage, 500 V; capillary voltage, −500 V in ESI negative mode. The instrument was set to acquire data over the m/z range 50-1000, with the MS acquisition rate of 1 spectra/s. […]

OPCs [2] = assay: Mitochondrial respiration assay (oxygen consumption rate, XFe96 Seahorse); details: 2 mM taurine, day 6, basal and benztropine- or miconazole-induced differentiation conditions
Procedure: Mitochondrial respiration assay. Cellular oxygen consumption rate (OCR) was measured using an XFe96 extracellular flux analyzer (Seahorse Biosciences). OPCs were seeded at 40,000 cells/well in PLP-coated XFe96 plates and cultured for 6 days with taurine (2 and 20 mM) alone, or together with miconazole and benztropine. Cells were then incubated in assay medium (DMEM with 20 mM glucose, 5 mM pyruvate and 5 mM sodium bicarbonate, pH˜7.4) for at least 30 min prior to the assay. Media to deliver a final assay well concentration corresponding to of 1 μM oligomycin, 2 μM carbonyl cyanide 4-(trifluoromethoxy) phenylhydrazone (FCCP) and 2 μM rotenone+2 μM antimycin A were pre-loaded into the compound delivery ports of the system. The assay starts with the recording of the basal OCR, followed by recording of the OCR in response to different compounds that constitute the Mitochondria Stress Test (Seahorse Biosciences, Agilent). Once the basal OCR was measured, the compounds were added sequentially and the effects on OCR measured 3 times every 5 min. Oligomycin blocks ATP synthase; FCCP dissipates the inner membrane potential enabling maximum electron flux through the electron transport chain (ETC); rotenone+antimycin A inhibit complexes I and III, respectively, thereby blocking the entry of electrons in the ETC and shutting down mitochondrial activity.

OPCs [3] = assay: Caspase-Glo 3/7 and Cell Titer Glo assays of apoptosis and survival during differentiation
Procedure: Detection of caspase 3/7. In poly-D-lysine-coated white 96-well plates (Greiner), cells were seeded at 5,000 cells per well. Taurine (20 mM) was added on days 0 or 3, alone and in combination with benztropine (0.5 μM), miconazole (2 μM), T3 (1 μM) or Staurosporine (1 μM) added on day 0. The Caspase-Glo 3/7 Assay (Promega) was utilized to quantify caspase-3/7 activity 6, 24 and 48 h after drug and taurine addition on day 0. Caspase-3/7 activity was also measured 24, 48 and 72 h (days 4, 5 and 6) after taurine addition on day 3.

## NCCS(=O)(=O)O [taurine, 2-aminoethanesulfonic acid]
OPCs [1]; T3 1 μM
  Cysteine pool, increase with taurine: 58.8 fold
  Serine pool, increase with taurine: 17.1 fold
OPCs [1]; benztropine 0.5 μM
  Cysteine pool, increase with taurine: 154.4 fold
  Serine pool, increase with taurine: 10.0 fold
OPCs [1]; miconazole 2 μM
  Cysteine pool, increase with taurine: 76.5 fold
  Serine pool, increase with taurine: 19.4 fold
OPCs [1]; day 3, T3 1 μM
  GSH level, increase with taurine: 1.8 fold
OPCs [1]; day 6, T3 1 μM
  Cysteine level, increase with taurine: 26.6 fold
  GSH level, increase with taurine: 6.1 fold
  Serine level, increase with taurine: 2.1 fold
OPCs [1]; day 6, benztropine 0.5 μM
  Cysteine level, increase with taurine: 44.7 fold
  Serine level, increase with taurine: 13.4 fold
OPCs [1]; day 6, miconazole 2 μM
  Cysteine level, increase with taurine: 47.2 fold
  Serine level, increase with taurine: 92.5 fold
OPCs [1]; benztropine (0.5 μM) or miconazole (2 μM) treated cultures, both time points
  Changes in GSH and glutamate with taurine: only minimally altered
OPCs [2]
  Oxygen consumption rate (OCR) values: significantly increase
OPCs [3]; 20 mM taurine with 1 μM staurosporine (apoptosis inducer)
  Apoptosis in OPCs treated with staurosporine: significantly inhibit
OPCs [3]; 24 hours after taurine addition at day 0 or day 3, 1 μM T3, 0.5 μM benztropine or 2 μM miconazole
  Caspase 3/7 activation: decrease
OPCs [3]; DMSO vehicle
  Apoptosis or survival under basal differentiation conditions: not found to impact
